2 compounds from ChEMBL document CHEMBL3632483, “Synthesis and pharmacological evaluation of piperidine (piperazine)-substituted benzoxazole derivatives as multi-target antipsychotics” (Bioorg Med Chem Lett, 2015) can be followed below.

Structures are written as SMILES.

In assay [1] the target is T1, Adrenergic receptor alpha-1 (Rattus norvegicus, UniProt P15823+P23944+P43140).
T1 sequence (P15823 whole entry): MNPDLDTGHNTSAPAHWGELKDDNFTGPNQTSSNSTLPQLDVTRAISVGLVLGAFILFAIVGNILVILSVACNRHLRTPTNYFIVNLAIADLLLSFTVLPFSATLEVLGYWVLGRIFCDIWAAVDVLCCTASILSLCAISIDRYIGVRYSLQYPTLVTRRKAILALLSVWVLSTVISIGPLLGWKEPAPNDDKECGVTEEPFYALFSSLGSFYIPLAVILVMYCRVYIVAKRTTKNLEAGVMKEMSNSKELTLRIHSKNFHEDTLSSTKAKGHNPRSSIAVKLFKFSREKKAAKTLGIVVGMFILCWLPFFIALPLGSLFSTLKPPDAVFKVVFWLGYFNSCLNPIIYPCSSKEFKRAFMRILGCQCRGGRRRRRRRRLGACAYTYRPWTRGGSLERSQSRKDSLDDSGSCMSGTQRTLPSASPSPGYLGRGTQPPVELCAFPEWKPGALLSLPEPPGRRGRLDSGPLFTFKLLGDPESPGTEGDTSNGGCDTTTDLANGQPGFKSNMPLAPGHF
T1 sequence (P23944 whole entry): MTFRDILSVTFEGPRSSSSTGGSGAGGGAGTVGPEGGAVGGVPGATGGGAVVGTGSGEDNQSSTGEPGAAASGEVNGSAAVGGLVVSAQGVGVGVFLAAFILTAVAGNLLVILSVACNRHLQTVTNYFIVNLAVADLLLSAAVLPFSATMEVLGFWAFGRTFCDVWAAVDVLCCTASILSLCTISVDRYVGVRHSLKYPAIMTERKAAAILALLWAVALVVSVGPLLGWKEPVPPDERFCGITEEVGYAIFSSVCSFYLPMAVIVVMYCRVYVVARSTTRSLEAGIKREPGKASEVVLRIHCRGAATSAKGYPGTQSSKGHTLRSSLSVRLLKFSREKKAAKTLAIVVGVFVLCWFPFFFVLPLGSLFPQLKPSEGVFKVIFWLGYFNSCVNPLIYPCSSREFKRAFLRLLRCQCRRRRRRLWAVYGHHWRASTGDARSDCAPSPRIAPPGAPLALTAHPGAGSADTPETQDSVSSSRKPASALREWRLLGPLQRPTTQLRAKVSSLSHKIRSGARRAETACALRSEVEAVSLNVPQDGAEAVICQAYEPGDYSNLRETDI
T1 sequence (P43140 whole entry): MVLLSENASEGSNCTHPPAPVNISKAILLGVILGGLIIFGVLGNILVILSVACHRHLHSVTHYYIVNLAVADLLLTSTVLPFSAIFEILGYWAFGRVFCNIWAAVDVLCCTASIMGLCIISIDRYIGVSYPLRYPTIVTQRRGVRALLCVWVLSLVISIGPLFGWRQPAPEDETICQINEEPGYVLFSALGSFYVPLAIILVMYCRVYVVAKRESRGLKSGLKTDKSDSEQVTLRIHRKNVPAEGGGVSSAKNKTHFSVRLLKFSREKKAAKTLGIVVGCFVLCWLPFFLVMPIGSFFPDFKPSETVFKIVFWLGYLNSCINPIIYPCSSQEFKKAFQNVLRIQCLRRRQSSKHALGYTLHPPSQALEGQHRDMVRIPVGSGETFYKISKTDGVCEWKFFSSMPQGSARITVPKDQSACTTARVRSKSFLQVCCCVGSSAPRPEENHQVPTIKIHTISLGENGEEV
The assay can be described thus: Displacement of [3H]prazosin from adrenergic alpha1 receptor in rat cerebral cortex homogenates after 60 mins by liquid scintillation counting. Format: tissue-based. In general terms: Loss of bound radioactivity is the signal in a displacement assay; it reports binding, not function.

Assay [2] addresses T2, 5-hydroxytryptamine receptor 1A (Rattus norvegicus, UniProt P19327).
T2 sequence (P19327 whole entry): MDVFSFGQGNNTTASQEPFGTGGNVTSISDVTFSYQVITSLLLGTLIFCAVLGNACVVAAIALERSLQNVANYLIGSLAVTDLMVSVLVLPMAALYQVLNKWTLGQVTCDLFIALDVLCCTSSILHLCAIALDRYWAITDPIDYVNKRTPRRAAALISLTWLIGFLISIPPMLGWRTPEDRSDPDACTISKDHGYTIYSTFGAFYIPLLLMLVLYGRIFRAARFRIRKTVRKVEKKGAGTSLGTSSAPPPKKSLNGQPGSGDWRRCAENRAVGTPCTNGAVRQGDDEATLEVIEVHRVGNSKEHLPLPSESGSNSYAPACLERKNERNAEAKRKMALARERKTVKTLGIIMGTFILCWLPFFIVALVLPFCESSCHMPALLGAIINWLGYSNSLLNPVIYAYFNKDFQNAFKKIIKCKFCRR
Description: Displacement of [3H]8-OH-DPAT from 5-HT1A receptor in rat cerebral cortex homogenates after 60 mins by liquid scintillation counting. Format: tissue-based.

Assay [3] deals with T3, 5-hydroxytryptamine receptor 2C (Rattus norvegicus, UniProt P08909).
T3 sequence (P08909 whole entry): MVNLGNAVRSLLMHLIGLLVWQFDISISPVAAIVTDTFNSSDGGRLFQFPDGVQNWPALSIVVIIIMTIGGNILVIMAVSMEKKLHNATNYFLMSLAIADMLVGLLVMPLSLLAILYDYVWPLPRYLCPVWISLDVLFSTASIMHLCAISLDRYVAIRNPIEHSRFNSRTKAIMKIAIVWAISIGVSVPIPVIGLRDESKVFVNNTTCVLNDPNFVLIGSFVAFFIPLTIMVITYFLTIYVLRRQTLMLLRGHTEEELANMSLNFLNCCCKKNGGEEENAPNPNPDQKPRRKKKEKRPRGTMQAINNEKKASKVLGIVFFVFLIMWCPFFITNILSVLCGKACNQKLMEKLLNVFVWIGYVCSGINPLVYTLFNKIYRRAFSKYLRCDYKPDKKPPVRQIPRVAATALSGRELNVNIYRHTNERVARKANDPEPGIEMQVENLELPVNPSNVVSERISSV
The assay can be described thus: Displacement of [3H]mesulergine from 5-HT2C receptor in rat cerebral cortex homogenates after 60 mins by liquid scintillation counting. It counts as tissue-based.

Assay [4] concerns the target 5-hydroxytryptamine receptor 7 (Rattus norvegicus, UniProt P32305). Description: biochemical.
Description: Displacement of [3H]-5-CT from 5-HT7 receptor in rat hypothalamus homogenates after 120 mins by liquid scintillation counting

5-hydroxytryptamine receptor 7, sequence (P32305 whole entry): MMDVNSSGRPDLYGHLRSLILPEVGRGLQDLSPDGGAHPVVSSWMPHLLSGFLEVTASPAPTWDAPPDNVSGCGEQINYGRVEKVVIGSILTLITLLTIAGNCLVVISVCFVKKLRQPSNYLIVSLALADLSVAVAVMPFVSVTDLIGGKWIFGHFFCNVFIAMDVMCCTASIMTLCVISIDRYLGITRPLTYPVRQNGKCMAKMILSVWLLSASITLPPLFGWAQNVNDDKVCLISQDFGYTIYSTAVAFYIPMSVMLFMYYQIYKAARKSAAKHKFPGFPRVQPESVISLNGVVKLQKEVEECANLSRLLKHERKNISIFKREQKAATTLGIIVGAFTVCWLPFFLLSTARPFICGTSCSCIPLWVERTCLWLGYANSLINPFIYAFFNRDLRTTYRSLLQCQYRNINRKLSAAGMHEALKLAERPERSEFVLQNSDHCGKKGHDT

The term Ki denotes a measure of affinity in units of concentration, obtained from inhibition or displacement. A higher Ki goes with a looser hold on the target. Regarding `Fc1ccc2c(C3CCN(CCCOc4ccc(Cc5nc6ccccc6o5)cc4)CC3)noc2c1`, the Ki in assay [1] was found to be 3276 nM; in assay [2], 21.3 nM; in assay [3], 1990 nM; in assay [4] it was 18.9 nM.

On to `Fc1ccc2c(C3CCN(CCCOc4ccc(-c5nc6ccccc6o5)cc4)CC3)noc2c1`, for which the Ki in assay [1] came out at 95 nM; in assay [2], 83.5 nM; in assay [3], 186 nM; in assay [4], 765 nM.
